Earlier results on 1 molecule are cited in patent publication US20080103122A1, “PHARMACEUTICAL COMBINATIONS FOR LIPID MANAGEMENT AND IN THE TREATMENT OF ATHEROSCLEROSIS AND HEPATIC STEATOSIS” (Schering Corporation, priority 2006, published 2008).

This data set concerns atherosclerotic plaques. Conditions: mice; Zaiss et al., Circulation 100 (18 Suppl. I): 255 (1999).

On to `Cc1cc(C)c2c3ccccc3n(Cc3ccc([C@@H](C(=O)N[C@@H](CO)c4ccccc4)C4CCCC4)cc3)c2n1` [implitiapide, 2,2-(S)-cyclopentyl-2-{[4-(2,4-dimethyl-alpha-carbolin-9-yl)methyl]phenyl}acetic acid-(R)-phenyl-glycinol-amide], for which the “formation of atherosclerotic plaques” value is listed as “prevents the formation of atherosclerotic plaques”.
